From US20110184006A1, “METHOD AND COMPOSITION FOR THERMALLY STABILIZING VITAMIN C WITHIN NANO LAYERS OF MONTMORILLONITE CLAY” (NATIONAL RESEARCH COUNCIL OF SRI LANKA, priority 2010, published 2011)

Assays:
[1] = Thermal stability: FTIR spectra after heating for 30 minutes; assay type: physicochemical
Protocol: Infrared (IR) spectroscopy was used to quantify samples. Nicolet 6700 FT-IR spectrophotometer was used to measure absorbance or transmittance value of samples. All samples were finely ground and mixed with fused KBr to form pellets in the measurements. Typical parameters included: scan range of 400-4000 cm^−1; resolution 4.00 cm^−1; and the number of scans were 32.
The FTIR spectra of the 0.5000 g calcium montmorillonite chelated with 0.2500 g of LAA heated at 100° C., 120° C., 140° C., 160° C., 180° C. and 200° C. for 30 minutes are shown in FIG. 10. As reference, the FTIR spectra of LAA at room temperature and after heating to 90, 120, 140, 160, 180 and 200° C. for 30 minutes are also shown in FIG. 10.
Further at 140° C., the structure of LAA is altered as the carbonyl stretch at 1750 cm^−1 was broader and the fingerprint region was changed.
First, 0.1000 g samples of the chelated clays were prepared as described in previous examples. Then to determine the thermal stability, 0.1000 g samples of 0.5000 g calcium montmorillonite chelated with 0.0500 g, 0.1000 g, 0.2500 g and 0.5000 g of LAA, were heated in an oven at 90° C. for 30 minutes. Pellets of the cooled samples were prepared with fused KBr and FTIR spectra of these samples were obtained. Reference spectra of the calcium montmorillonite chelated clays before heating were also obtained for comparison. […]

[2] = in blood plasma; cited from earlier work

structure (FTIR) after heating at 140° C. ([1]; 140° C., 30 minutes): altered
SMILES: O=C1O[C@H]([C@@H](O)CO)C(O)=C1O [LAA, L-ascorbic acid]
change of structure (FTIR) as the temperature is increased ([1]; heated 30 minutes at 90/100 to 200° C.): changes gradually as the temperature is increased until it is completely destroyed
biological half-life [2]: about 30 minutes
